Laboratory results from patent US20240342166A1, “PHARMACEUTICAL COMPOSITION FOR PREVENTING OR TREATING TUMOR, AND USE THEREOF” (TIUMBIO CO., LTD., priority 2021, published 2024).

What was measured:
[1] = tested on: human peripheral blood mononuclear cells (hPBMCs); assay: In vitro IFN-γ secretion in TGF-β-inhibited, anti-CD3/anti-CD28-stimulated hPBMCs (ELISA); type: cell-based; settings: treated with anti-CD3 antibodies, anti-CD28 antibodies and TGF-β; stimulated for 72 hours; IFN-γ ELISA of supernatants
Description: A 6-well plate was coated with anti-CD3 monoclonal antibodies (OKT3) at 4° C. overnight. Each well of the 6-well plate was suctioned with an antibody solution, and washed using PBS. hPBMCs were plated on the coated 6-well plate. In order to increase the reactivity of hPBMCs, culturing was performed for 5 days under the conditions of 37° C., 5% carbon dioxide humidification incubator. The hPBMCs cultured for 5 days were inoculated in a 96-well plate at a concentration of 1×10^5 cells/well. The hPBMCs inoculated in the 96-well plate were treated with lenvatinib or Compound 1 and the hPBMCs were incubated for 1 hour, then TGF-β was added thereto and the hPBMCs were cultured for 1 hour. […] After 72 hours, the supernatants were recovered and conventional IFN-γ ELISA was performed. The IFN-γ content generated for each group was measured. Data analysis was performed using Prism 5 (GraphPad Software, Inc.), and statistical analysis was performed using One-way ANOVA and Tukey's multiple comparison.

[2] = tested on: 4T1 cell lines (Murine breast cancer cells); assay: Breast cancer mouse model (Example 4); type: in vivo; settings: Day 23 from the cell line inoculation date; Compound 1 50 mg/kg twice a day p.o.; anti-PD-1 or anti-CTLA-4 antibody 10 mg/kg every three days i.p.
Source text: (§1) 60 female BALB/C mice, 6-8 weeks old, were purchased from Vital River Laboratories Research Model and Services Company.
The difference in tumor volumes was statistically analyzed using ANOVA and Tukey's multiple comparison test.

[3] = tested on: MBT2 cell lines (Murine bladder cancer cells); assay: Bladder cancer mouse model (Example 5); settings: tumor volume on Day 30 from the cell line inoculation date; responder = tumor volume less than 1/4 of 1,500 mm^3; Compound 1 alone 15 mg/kg twice a day, in combination 50 mg/kg twice a day p.o.; anti-PD-1 antibody 12.5 mg/kg twice a week i.p.
Description: C3H/HeN female mice, 7 weeks old, were purchased from OrientBio. 2.5×10^5 MBT2 cell lines (Murine bladder cancer cells) were injected subcutaneously into the right flank of each mouse to transplant a cancer cell line. The MBT2 cell line transplantation date was determined as Day 0, and the tumor volume was measured on Day 6.
A 0.9% physiological saline solution was prepared as a vehicle, and a mixed solution of an anti-PD-1 antibody (BioXCell) and PBS, and a mixed solution of Compound 1 and the vehicle were prepared as study drugs.
The mice selected in Example 5.1 were assigned to a control group, a group in which an anti-PD-1 antibody was administered, a group in which Compound 1 was administered, or a group in which Compound 1 was administered in combination with an anti-PD-1 antibody, respectively. Drugs were administered from Day 6 to Day 28 from the MBT2 cell line transplantation date.
The mouse tumor volume and weight were measured three times a week during the study period after the drug administration. The tumor volume was measured by the same method as the method for measuring the tumor volume in Example 1.1.2.

[4] = tested on: CT26 cell lines (Murine colon cancer cells); assay: Colorectal cancer mouse model (Example 2); type: in vivo; settings: Day 26 from the drug administration date; groups without anti-CTLA-4 antibody; Compound 1 50 mg/kg twice a day p.o.; anti-PD-1 antibody 10 mg/kg once every three days i.p.; lenvatinib 10 mg/kg p.o.
Description: 170 female BALB/C mice, which were 6-8 weeks old, were purchased from OrientBio, and cancer cell lines were transplanted by subcutaneously injecting 7.5×10^5 CT26 cell lines (Murine colon cancer cells) into the right flank of each mouse.
The mice selected in Example 2.1 were assigned to the groups listed in Table 4 below, and vehicles or drugs were administered, and drug administration was initiated on Day 7 from the cell line inoculation date, and the study was terminated on Day 27 from the drug administration date.
In this case, the mouse tumor volume was calculated by the same method as the tumor volume calculation method of Example 1.1.2.
Tumor volume changes and weight changes for each group were statistically analyzed using Two-way ANOVA test, Bonferroni test, and one-tailed t-test.

[5] = tested on: WEHI-164 cell lines (Murine sarcoma cells); assay: Sarcoma mouse model (Example 3); type: in vivo; settings: Compound 1 50 mg/kg twice a day p.o.
Description: as §1
Drugs were administered from Day 7 to Day 23 from the WEHI-164 cell line transplantation date.
The difference in tumor volumes during the study period was statistically analyzed using one-tailed t-test, ANOVA and Tukey's multiple comparison test.

B16F10 cell lines = assay: Melanoma mouse model, anti-PD-1 antibody and Compound 1 (Example 1.1); type: in vivo; settings: Day 15 from the drug administration date; C57BL/6 mice; Compound 1 50 mg/kg twice a day p.o.; anti-PD-1 antibody 10 mg/kg once every three days i.p.
Source text: 40 female C57BL/6 mice, which were 6-8 weeks old, were purchased from OrientBio, and 1×10^6 B16F10 cell lines (KCLB, #80008) were subcutaneously injected into the right flank of each mouse, thereby transplanting the cancer cell lines thereto.
The mice were classified according to the mean and deviation of the tumor volume on Day 9.
A change in tumor volume for each group was statistically analyzed using Two-way ANOVA test.

What does the source list for `Cc1cccc(-c2nc3n(c2-c2ccc4ncnn4c2)CCN3)n1.O=P(O)(O)O` [Compound 1, 6-(6-(6-methylpyridine-2-yl)-2,3-dihydro-1H-imidazo[1,2-a]imidazol-5-yl)-[1,2,4]triazole[1,5-a]pyridine phosphate]?
secretion of IFNγ in human PBMCs [1]: increased secretion of IFNγ; tumor volume reduced compared to the tumor volume of the control group [2]: 16%; Response individual ratio (percent) [3]: 9%; Response individual ratio (responders/mice) [3]: 1/11; drop in tumor volume compared to the tumor volume of the control group (vehicle) [4]: 59%; complete remission rate of the tumor ([5]; anti-CTLA-4 antibody 10 mg/kg once a week i.p., compared to the vehicle control group): 30%; tumor volume smaller than the tumor volume of the control group ([5]; Day 16 from the drug administration initiation date, anti-PD-1 antibody 10 mg/kg once a week i.p.): 71%; tumor volume lower than the tumor volume measured in the control group (B16F10 cell lines): 44%

Which “secretion of IFNγ in human PBMCs” value [1] does the source give for `COc1cc2nccc(Oc3ccc(NC(=O)NC4CC4)c(Cl)c3)c2cc1C(N)=O` [lenvatinib, reference compound] here?
The value was “increased secretion of IFNγ”.

And the “drop in tumor volume compared to the tumor volume of the control group (vehicle)” value [4]?
The value was 30%.
